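Five concentrations, 48 hours, 96-well plates. Abbreviation: GI50, concentration required for 50% inhibition of growth.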 Calls of active or inactive are those of the source. Cut-off read from the data, not from the text of the source: active = GI50 up to about 1.1 µM and inactive = higher.
Key:
Test in all cases: inhibition of tumour cell growth, NCI panel, 48 h
[1] = system: SF-539
[2] = system: MOLT-4
[3] = system: SW-620
[4] = system: OVCAR-8
[5] = system: UO-31
[6] = system: A549
[7] = system: Malme-3M
[8] = system: NCI-H23
[9] = system: RXF 393
[10] = system: COLO 205
[11] = system: UACC-62
[12] = system: ACHN
[13] = system: OVCAR-5
[14] = system: K562
[15] = system: OVCAR-4
[16] = system: BT-549
[17] = system: MDA-N
[18] = system: SK-MEL-5
[19] = system: HT-29
[20] = system: RPMI-8226
[21] = system: SF-268
[22] = system: NCI-H522
[23] = system: HOP-62
[24] = system: TK-10
[25] = system: SNB-19
[26] = system: DU-145
[27] = system: PC-3
[28] = system: EKVX
[29] = system: MDA-MB-231
[30] = system: UACC-257
[31] = system: SK-OV-3
[32] = system: SN12C
[33] = system: SK-MEL-28
[34] = system: HCC 2998
[35] = system: SR
[36] = system: CCRF-CEM
[37] = system: KM12
[38] = system: HL-60
[39] = system: MCF7
[40] = system: T47D
[41] = system: A498
[42] = system: Hs-578T
[43] = system: M14
[44] = system: HOP-92
[45] = system: OVCAR-3
[46] = system: CAKI-1
[47] = system: HCT-15
[48] = system: SF-295
[49] = system: MDA-MB-435
[50] = system: SK-MEL-2
[51] = system: NCI/ADR-RES
[52] = system: HCT-116
[53] = system: NCI-H460
[54] = system: U-251
[55] = system: IGROV-1
[56] = system: 786-0
[57] = system: LOX IMVI

In the case of `CCN(CC)C(=S)SC(C(=O)Nc1nnc(-c2ccc(Cl)cc2)o1)c1ccccc1` (configuration not stated), the GI50 [1] is reported as 14.8 µM (inactive), the GI50 [2] is reported as 3.48 µM (inactive) and the GI50 [3] is reported as 5.41 µM (inactive). The GI50 [4] was 5.79 µM (inactive), the GI50 [5] was 17 µM (inactive) and the GI50 [6] was 17.9 µM (inactive). For the same molecule, the GI50 [7] was 13.8 µM (inactive), the GI50 [8] was 22.1 µM (inactive) and the GI50 [9] was 14.9 µM (inactive). The GI50 [10] was 4.06 µM (inactive), the GI50 [11] was 7.35 µM (inactive) and the GI50 [12] was 6.64 µM (inactive). For the same molecule, the GI50 [13] was 6.41 µM (inactive), the GI50 [14] was 12.8 µM (inactive) and the GI50 [15] was 3.08 µM (inactive). The GI50 [16] was 28.5 µM (inactive), the GI50 [17] was 17.3 µM (inactive) and the GI50 [18] was 4.6 µM (inactive). The GI50 [19] was 4.86 µM (inactive), the GI50 [20] was 4.72 µM (inactive) and the GI50 [21] was 15.6 µM (inactive). For the same molecule, the GI50 [22] was 4.62 µM (inactive), the GI50 [23] was 14.7 µM (inactive) and the GI50 [24] was 23.5 µM (inactive). The GI50 [25] was 34.6 µM (inactive), the GI50 [26] was 20.1 µM (inactive) and the GI50 [27] was 3.35 µM (inactive). The GI50 [28] was 8.47 µM (inactive), the GI50 [29] was 26 µM (inactive) and the GI50 [30] was 31.6 µM (inactive). For the same molecule, the GI50 [31] was 13 µM (inactive), the GI50 [32] was 13.3 µM (inactive) and the GI50 [33] was 14 µM (inactive). The GI50 [34] was 3.41 µM (inactive), the GI50 [35] was 4.97 µM (inactive) and the GI50 [36] was 2.84 µM (inactive). The GI50 [37] was 17.9 µM (inactive), the GI50 [38] was 4.85 µM (inactive) and the GI50 [39] was 7.26 µM (inactive). For the same molecule, the GI50 [40] was 6.53 µM (inactive), the GI50 [41] was 11.9 µM (inactive) and the GI50 [42] was 35.4 µM (inactive). The GI50 [43] was 10.8 µM (inactive), the GI50 [44] was 16.6 µM (inactive) and the GI50 [45] was 3.21 µM (inactive). The GI50 [46] was 11.7 µM (inactive), the GI50 [47] was 3.81 µM and the GI50 [48] was 12.8 µM (inactive). For the same molecule, the GI50 [49] was 14.2 µM (inactive), the GI50 [50] was 20.6 µM (inactive) and the GI50 [51] was 5.68 µM (inactive). The GI50 [52] was 3.46 µM (inactive), the GI50 [53] was 10.4 µM (inactive) and the GI50 [54] was 10 µM (inactive). For the same molecule, the GI50 [55] was 2.7 µM (inactive), the GI50 [56] was 10 µM (inactive) and the GI50 [57] was 15.3 µM (inactive).
